Patent US20210023223A1, “HYDROCARBON / LIPID - CAROTENOID COMPLEXES” (IP SCIENCE LIMITED, priority 2018, published 2021)

Tests used:
[1] = Size of lipid droplets of dairy butter, microscopy; type: physicochemical
Excerpt: (§1) For measurement of lipid droplets and fat globules and quantification of their size binocular microscope Olympus BX41 was used with Cell^B software for morphometric analysis. All parameters were collected from 10 randomly selected microscopic fields at ×1000).
Incorporation of lycopene into the butter led to a significant increase in the size of its lipid droplets and many reached more than 100 or even 300 fold of their diameter. This effect was dose-dependent, and can already be observed for less than 1 molecule of lycopene to 224,000 molecules of butter triglycerides.

[2] = Size of pork fat globules, microscopy; type: physicochemical
Procedure: as §1
When carotenoids were added to animal fat, with a relatively high percentage of saturated fatty acid, a similar trend in increased fat globules was observed, although to a lesser degree. The maximum doses of lycopene or astaxanthin caused a similar increase in the pork fat globules diameter, only 50%, FIG. 2 and table 3.

[3] = Size of beef fat globules, microscopy; type: physicochemical
Excerpt: as §1, with “×1000). In case of beef fat, lycopene incorporation led to a smaller increase of its fat globules, only by 30%, FIG. 3.” for “×1000).”

[4] = Spreadability of fat drops on hard surface (viscosity); type: physicochemical
Procedure: The described above enlargement of lipid droplets or fat globules, caused by carotenoids, translated into reduction of the viscosity of their product. This could be visually observed without any instrumentation—the larger surface area is covered by spreading a drop of oil or molten fat to lower the viscosity of this food mass.
When astaxanthin was added to the dairy butter reduction its viscosity could be visually observed After measuring and comparing the size of the spread drops this decrease was estimated to be about 3, (FIG. 5).

[5] = Oil volume needed to cover water surface; type: physicochemical; conditions: 100 ml water sample; unmodified oil 21.5 ml
Excerpt: The other way to assess changes in oil viscosity, caused by carotenoids, would be to measure how much oil would be needed to cover a water surface of the same size. The lower viscosity of the oil the more spreadable it will be, and consequently less of it would be needed to cover this surface. Therefore, by measuring how much oil would be required to cover a certain surface of water we can asses how deep changes in the lipid folding were made by incorporating carotenoids.
An additional nine heating experiments were carried out when either pure Napolina olive oil, Napolina olive oil containing Astaxanthin (7 mg/ml), or Napolina olive oil containing Lycopene (7 mg/ml) was carefully poured over the surface of the water in order to prevent evaporation. The amount of oil required to completely cover the surface of the 100 ml water sample in the cup (diameter—7.4 cm) was measured (15 ml Falcon laboratory tubes and 1 ml Pipetman pitettes were used) and recorded for each oil type. The thickness of the resulting oil film (necessary to completely cover water surface) was then calculated. Temperature change curves were compared for uncovered water and water samples overlayed with three varieties of oil at heating temperatures of 200° C., 250° C. and 300° C. Water samples overlaid with oils were heated until water reached boiling point (usually at 99° C.). […]

Melting time at 37° C. [6] = type: physicochemical; conditions: 0.3 mg per 1 g of butter
Procedure: (§2) Approximately 20 mg of butter, or pork fat, or beef fat, or cocoa butter, or chocolate, with or without certain concentrations of carotenoids, were placed on the surface of the laboratory slides and incubated at 37° C. in a laboratory incubator (TLK39).

Melting time at 37° C. [7] = type: physicochemical; conditions: 1 mg per 1 g of the chocolate; control 19 minutes
Procedure: as §2
Results presented in FIG. 15 show three different carotenoids—lycopene, lutein and astaxanthin, can reduce, albeit to a different degree, the melting time of dark chocolate regardless of its tempering protocols: Protocol I—28° C., Protocol II—29° C., Protocol III—30° C.

[8] = Defrosting time of frozen oil; type: physicochemical
Procedure: To determined defrosting time, frozen oil aliquots of 200 μI were incubated at ambient temperature of 20±2 C° until they were completely melted. Period of time, which was required for the tested sample to be melted, was measured with a laboratory timer (QUANTUM).

[9] = Heating olive oil-in-water emulsions; type: physicochemical
[10] = system: healthy volunteers, facial skin; experiment: Astaxanthin trial, residual skin surface components (RSSC); type: in vivo, human; conditions: 4 mg daily, 4 weeks
Procedure: Group I—31 (17 male and 14 female subjects, 40-80 years of age) for astaxanthin intervention;
Group I—participants received 4 mg daily doses of formulated astaxanthin,
Daily dose of each carotenoid product was taken in one capsule with the main evening meal for 4 weeks (from day 1 to day 28 of the study).
For RSSC sample collection all participants of the study were requested to avoid facial hygienic manipulations for 24 hours before material collection, which was carried out in the morning. These samples were collected only before initiation of astaxanthin supplementation (day 0) and at the end of the study (day 29). RSSC sample collection and preparation was performed according to previously described procedures. Briefly, RSSC samples were collected using polyester swabs from the surface of the facial skin (the sides of the nose). During the procedure two samples were taken (one swab per side). Each collected sample was placed on the surface of a microscope slide. A second microscope slide was pressed against the surface of the first one. […] All slides with collected samples (i.e. four slides per study participant per time point) were coded to provide sample anonymity for blinded analysis. All collected samples were sent to the laboratory of Lycotec Ltd for further processing and eventual microscopic examination.
For morphological analysis of RSSC samples one slide of the first pair was stained with hematoxylin and eosin in order to identify any cells or cell remnants. The second slide was stained using Oil Red O (Lipid Stain, ab150678, Abcam, Cambridge, UK) for lipid visualization and lipid droplet size evaluation. One slide from the other pair was stained with crystal violet solution (Gram staining) to assess the level of microorganism presence. The remaining slides were kept unstained for possible future use.
All stained smears were examined microscopically by a highly experienced cytopathologist. Microscopy was performed using Olympus BX41 laboratory microscope (Olympus, Japan) at ×1000 magnification.
The analysis included examining 40 fields of view within one smear. Dark field microscopy was applied for lipid crystal visualization. […]
The analysis of typical structural elements of the RSSC comprised lipid droplet measurements, counting characteristic lipid crystals and desquamated corneocytes, and evaluation of bacterial presence as previously described. The indicated micro objects/structures were quantified using Cell^B imaging software (Digital Imaging Solutions, Olympus, Japan). […]
In the morphological analysis of the RSSC quantitatively assessed parameters comprised lipid droplet size, numbers of desquamated corneocytes and lipid crystals and bacterial presence estimates (using Bacterial Presence Assessment Scale as described in our previous paper).

## CC1=C(/C=C/C(C)=C/C=C/C(C)=C/C=C/C=C(C)/C=C/C=C(C)/C=C/C2=C(C)C(=O)[C@@H](O)CC2(C)C)C(C)(C)C[C@H](O)C1=O [Astaxanthin, astaxanthin]
[1]; astaxanthin dose 0.1 per 30 g of butter
  Size of butter lipid droplets, Mean: 7.44 µm
[1]; astaxanthin dose 0.5 per 30 g of butter
  Size of butter lipid droplets, Mean: 9.23 µm
[1]; astaxanthin dose 1.0 per 30 g of butter
  Size of butter lipid droplets, Mean: 12.4 µm
[1]; astaxanthin dose 2.0 per 30 g of butter
  Size of butter lipid droplets, Mean: 14.7 µm
[1]; astaxanthin dose 3.5 per 30 g of butter
  Size of butter lipid droplets, Mean: 12.2 µm
[1]; astaxanthin dose 7.0 per 30 g of butter
  Size of butter lipid droplets, Mean: 25 µm
[1]; astaxanthin dose 10.0 per 30 g of butter
  Size of butter lipid droplets, Mean: 34.1 µm
[2]; astaxanthin dose 0.1 per 30 g of pork fat
  Size of pork fat globules, Mean: 5.687 μm
[2]; astaxanthin dose 0.5 per 30 g of pork fat
  Size of pork fat globules, Mean: 4.937 μm
[2]; astaxanthin dose 1.0 per 30 g of pork fat
  Size of pork fat globules, Mean: 5.333 μm
[2]; astaxanthin dose 2.0 per 30 g of pork fat
  Size of pork fat globules, Mean: 6.812 μm
[2]; astaxanthin dose 3.5 per 30 g of pork fat
  Size of pork fat globules, Mean: 8.307 μm
[2]; astaxanthin dose 7.0 per 30 g of pork fat
  Size of pork fat globules, Mean: 7.9 μm
[2]; astaxanthin dose 10.0 per 30 g of pork fat
  Size of pork fat globules, Mean: 8.692 μm
[2]; maximum doses
  Increase in the pork fat globules diameter: 50%
[3]
  Increase of beef fat globules diameter: 2.5 folds
[4]
  Decrease of dairy butter viscosity from size of the spread drops: about 3
[5]
  Oil volume needed to cover the surface of the water: 15 mL
Melting time at 37° C. [6]
  Reduction of melting time of dairy butter: more than 3.5 fold
Melting time at 37° C. [6]; control 140 seconds
  Melting time of dairy butter: 38 s
Melting time at 37° C. [7]
  Melting time of dark chocolate: 5 min
[8]; 0.3 mg per 1 ml of the oil
  Reduction of thawing time of Olive oil: 11 fold
[8]; 0.3 mg per 1 ml of the oil, controls 60 (lycopene) and 48 seconds (astaxanthin)
  Thawing time of frozen Olive oil: 4.3 s
[8]; 0.3 mg per 1 ml the oil
  Reduction of thawing time of Sunflower oil: above 3 fold
[9]; 50%:50%, 1 molecule lycopene to 67,000 or astaxanthin to 71,000 fatty acids, control 10° C.
  Rate of heating of olive oil emulsion in water in the first 3 minutes: 23 °C
[9]; water to olive oil 75%:25%, control 62° C.
  Maximum temperature the emulsion could reach: 90 °C
[10]; P=0.0075
  Corneocyte desquamation levels at the end of the study: clearly reduced in most volunteers
[10]; subgroup of obese subjects
  Lipid droplet size, day 29 vs day 0: statistically significant (P=0.0214) increase
[10]; whole group, P=0.0683
  Lipid droplet size, day 29 vs day 0: has not reached statistical significance
[10]; whole volunteer group
  Microbial presence in RSSC samples: statistically significant (P=0.0367) decrease
